Results: US6649634B2, “Substituted N-( indole-2-carbonyl-) amides and derivatives as glycogen phosphorylase inhibitors” (Pfizer, Inc., priority 1995, dated 2003)

Compound CON(C)C(=O)C(O)CNC(=O)c1cc2cc(Cl)ccc2[nH]1 (racemic) [Example 30, 5-Chloro-1H-indole-2-carboxylic acid [(2RS)-hydroxy-2-(methoxy-methyl-carbamoyl)-ethyl]-amide] has a melting point of 192 to 192.5 °C.
